# PubChem BioAssay AID1963450 (Molecular Pharmacology Branch, DTP, NCI, 2024)
# Tested on: 556581-035-R-J1-PDC complex spheroid growth
# Experiment: Anticancer human tumor 556581-035-R-J1-PDC patient-derived ovarian carcinoma cell line growth inhibition [Asc]
# Details: for IC50: curve of first compound; for viability, T/C: stronger effect = lower value
# Method in brief: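 Stromal components (HUVEC and hMSC) are co-assembled with the cancer cells into multicellular spheroids. Drugs are then added singly or paired, at concentrations falling by half-log increments from a clinically achievable maximum, capped at 10 microM without known Cmax.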
# [1] = second compound 0.1 µM, first compound 0.00316 µM
# [2] = second compound 0.1 µM, first compound 0.01 µM
# [3] = second compound 0.1 µM, first compound 0.0316 µM
# [4] = second compound 0.1 µM, first compound 0.1 µM
# [5] = second compound 0.1 µM, first compound 0.316 µM
# [6] = second compound 0.1 µM, first compound 1 µM
# [7] = second compound 0.316 µM, first compound 0.00316 µM
# [8] = second compound 0.316 µM, first compound 0.01 µM
# [9] = second compound 0.316 µM, first compound 0.0316 µM
# [10] = second compound 0.316 µM, first compound 0.1 µM
# [11] = second compound 0.316 µM, first compound 0.316 µM
# [12] = second compound 0.316 µM, first compound 1 µM
# [13] = second compound 1 µM, first compound 0.00316 µM
# [14] = second compound 1 µM, first compound 0.01 µM
# [15] = second compound 1 µM, first compound 0.0316 µM
# [16] = second compound 1 µM, first compound 0.1 µM
# [17] = second compound 1 µM, first compound 0.316 µM
# [18] = second compound 1 µM, first compound 1 µM
# [19] = second compound 3.16 µM, first compound 0.00316 µM
# [20] = second compound 3.16 µM, first compound 0.01 µM
# [21] = second compound 3.16 µM, first compound 0.0316 µM
# [22] = second compound 3.16 µM, first compound 0.1 µM
# [23] = second compound 3.16 µM, first compound 0.316 µM
# [24] = second compound 3.16 µM, first compound 1 µM
# [25] = second compound 10 µM, first compound 0.00316 µM
# [26] = second compound 10 µM, first compound 0.01 µM
# [27] = second compound 10 µM, first compound 0.0316 µM
# [28] = second compound 10 µM, first compound 0.1 µM
# [29] = second compound 10 µM, first compound 0.316 µM
# [30] = second compound 10 µM, first compound 1 µM
# 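Note: spheroids exposed to agents for 7 days before viability read.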
structure (smiles),measurement,setting,value
CCN1CCN(Cc2ccc(Nc3ncc(F)c(-c4cc(F)c5nc(C)n(C(C)C)c5c4)n3)nc2)CC1 + Cc1c(S(C)(=O)=O)c(-c2cc(F)cc(N3CCN(c4ccc(NS(=O)(=O)c5ccc(NC(CCN6CCC(C(=O)OCCCP(=O)(O)O)CC6)CSc6ccccc6)c(S(=O)(=O)C(F)(F)F)c5)cc4)CC3)c2)c(-c2ccc(Cl)cc2)n1C(C)C,IC50,second compound 0.1 µM,> 1000 nM
same,IC50,second compound 0.316 µM,> 1000 nM
same,IC50,second compound 1 µM,556 nM
same,IC50,second compound 3.16 µM,782 nM
same,IC50,second compound 10 µM,490 nM
same,"viability, T/C",[1],99.3%
same,"viability, T/C",[2],75.3%
same,"viability, T/C",[3],88.9%
same,"viability, T/C",[4],78.1%
same,"viability, T/C",[5],87.8%
same,"viability, T/C",[6],61%
same,"viability, T/C",[7],83.7%
same,"viability, T/C",[8],77.5%
same,"viability, T/C",[9],86.5%
same,"viability, T/C",[10],83.5%
same,"viability, T/C",[11],74.7%
same,"viability, T/C",[12],57.5%
same,"viability, T/C",[13],78.2%
same,"viability, T/C",[14],89.6%
same,"viability, T/C",[15],86.6%
same,"viability, T/C",[16],77.3%
same,"viability, T/C",[17],62%
same,"viability, T/C",[18],37.9%
same,"viability, T/C",[19],69.6%
same,"viability, T/C",[20],86.1%
same,"viability, T/C",[21],90.1%
same,"viability, T/C",[22],66.5%
same,"viability, T/C",[23],67.6%
same,"viability, T/C",[24],45.5%
same,"viability, T/C",[25],68.9%
same,"viability, T/C",[26],69.7%
same,"viability, T/C",[27],79.9%
same,"viability, T/C",[28],64%
same,"viability, T/C",[29],70.6%
same,"viability, T/C",[30],16.7%
COc1c(OCCCN2CCOCC2)ccc2c3n(c(=NC(=O)c4cnc(N)nc4)nc12)CCN3 + Cc1c(S(C)(=O)=O)c(-c2cc(F)cc(N3CCN(c4ccc(NS(=O)(=O)c5ccc(NC(CCN6CCC(C(=O)OCCCP(=O)(O)O)CC6)CSc6ccccc6)c(S(=O)(=O)C(F)(F)F)c5)cc4)CC3)c2)c(-c2ccc(Cl)cc2)n1C(C)C,IC50,second compound 0.1 µM,46.9 nM
same,IC50,second compound 0.316 µM,28.4 nM
same,IC50,second compound 1 µM,18.9 nM
same,IC50,second compound 3.16 µM,10.5 nM
same,IC50,second compound 10 µM,3.16 nM
same,"viability, T/C",[1],71%
same,"viability, T/C",[2],67.5%
same,"viability, T/C",[3],42.1%
same,"viability, T/C",[4],51.2%
same,"viability, T/C",[5],29.9%
same,"viability, T/C",[6],10.1%
same,"viability, T/C",[7],75.6%
same,"viability, T/C",[8],56.6%
same,"viability, T/C",[9],44.4%
same,"viability, T/C",[10],47.9%
same,"viability, T/C",[11],16.4%
same,"viability, T/C",[12],10.5%
same,"viability, T/C",[13],57.9%
same,"viability, T/C",[14],61.3%
same,"viability, T/C",[15],41.5%
same,"viability, T/C",[16],27.7%
same,"viability, T/C",[17],14.2%
same,"viability, T/C",[18],9.33%
same,"viability, T/C",[19],59%
same,"viability, T/C",[20],50.5%
same,"viability, T/C",[21],41.7%
same,"viability, T/C",[22],29%
same,"viability, T/C",[23],23.9%
same,"viability, T/C",[24],9.13%
same,"viability, T/C",[25],48.7%
same,"viability, T/C",[26],57.3%
same,"viability, T/C",[27],34%
same,"viability, T/C",[28],53.7%
same,"viability, T/C",[29],11.1%
same,"viability, T/C",[30],19.6%
NC(=O)C(=Cn1cnc(-c2cc(C(F)(F)F)cc(C(F)(F)F)c2)n1)c1cncnc1 + Cc1c(S(C)(=O)=O)c(-c2cc(F)cc(N3CCN(c4ccc(NS(=O)(=O)c5ccc(NC(CCN6CCC(C(=O)OCCCP(=O)(O)O)CC6)CSc6ccccc6)c(S(=O)(=O)C(F)(F)F)c5)cc4)CC3)c2)c(-c2ccc(Cl)cc2)n1C(C)C,IC50,second compound 0.1 µM,> 300 nM
same,IC50,second compound 0.316 µM,> 300 nM
same,IC50,second compound 1 µM,> 300 nM
same,IC50,second compound 3.16 µM,148 nM
same,IC50,second compound 10 µM,87.6 nM
same,"viability, T/C","second compound 0.1 µM, first compound 0.000949 µM",70.9%
same,"viability, T/C","second compound 0.1 µM, first compound 0.003 µM",72.3%
same,"viability, T/C","second compound 0.1 µM, first compound 0.00949 µM",75%
same,"viability, T/C","second compound 0.1 µM, first compound 0.03 µM",57.8%
same,"viability, T/C","second compound 0.1 µM, first compound 0.0949 µM",75.9%
same,"viability, T/C","second compound 0.1 µM, first compound 0.3 µM",66.1%
same,"viability, T/C","second compound 0.316 µM, first compound 0.000949 µM",81.2%
same,"viability, T/C","second compound 0.316 µM, first compound 0.003 µM",75.6%
same,"viability, T/C","second compound 0.316 µM, first compound 0.00949 µM",80.3%
same,"viability, T/C","second compound 0.316 µM, first compound 0.03 µM",69.5%
same,"viability, T/C","second compound 0.316 µM, first compound 0.0949 µM",66.3%
same,"viability, T/C","second compound 0.316 µM, first compound 0.3 µM",52.9%
same,"viability, T/C","second compound 1 µM, first compound 0.000949 µM",78%
same,"viability, T/C","second compound 1 µM, first compound 0.003 µM",63.5%
same,"viability, T/C","second compound 1 µM, first compound 0.00949 µM",63.8%
same,"viability, T/C","second compound 1 µM, first compound 0.03 µM",68.5%
same,"viability, T/C","second compound 1 µM, first compound 0.0949 µM",52.9%
same,"viability, T/C","second compound 1 µM, first compound 0.3 µM",59.5%
same,"viability, T/C","second compound 3.16 µM, first compound 0.000949 µM",57.2%
same,"viability, T/C","second compound 3.16 µM, first compound 0.003 µM",61.2%
same,"viability, T/C","second compound 3.16 µM, first compound 0.00949 µM",70.3%
same,"viability, T/C","second compound 3.16 µM, first compound 0.03 µM",63.9%
same,"viability, T/C","second compound 3.16 µM, first compound 0.0949 µM",59.6%
same,"viability, T/C","second compound 3.16 µM, first compound 0.3 µM",34%
same,"viability, T/C","second compound 10 µM, first compound 0.000949 µM",73%
same,"viability, T/C","second compound 10 µM, first compound 0.003 µM",63.9%
same,"viability, T/C","second compound 10 µM, first compound 0.00949 µM",61%
same,"viability, T/C","second compound 10 µM, first compound 0.03 µM",55%
same,"viability, T/C","second compound 10 µM, first compound 0.0949 µM",49.2%
same,"viability, T/C","second compound 10 µM, first compound 0.3 µM",45.6%
NC1CCC(NC2CC2c2ccccc2)CC1 (stereo not given) + Cc1c(S(C)(=O)=O)c(-c2cc(F)cc(N3CCN(c4ccc(NS(=O)(=O)c5ccc(NC(CCN6CCC(C(=O)OCCCP(=O)(O)O)CC6)CSc6ccccc6)c(S(=O)(=O)C(F)(F)F)c5)cc4)CC3)c2)c(-c2ccc(Cl)cc2)n1C(C)C,IC50,second compound 0.1 µM,> 100 nM
same,IC50,second compound 0.316 µM,> 100 nM
same,IC50,second compound 1 µM,> 100 nM
same,IC50,second compound 3.16 µM,> 100 nM
same,IC50,second compound 10 µM,> 100 nM
same,"viability, T/C","second compound 0.1 µM, first compound 0.000316 µM",74.9%
same,"viability, T/C","second compound 0.1 µM, first compound 0.001 µM",90.3%
same,"viability, T/C",[1],64.5%
same,"viability, T/C",[2],77.2%
same,"viability, T/C",[3],75.6%
same,"viability, T/C",[4],76.9%
same,"viability, T/C","second compound 0.316 µM, first compound 0.000316 µM",74%
same,"viability, T/C","second compound 0.316 µM, first compound 0.001 µM",83.3%
same,"viability, T/C",[7],67.2%
same,"viability, T/C",[8],82.5%
same,"viability, T/C",[9],80.5%
same,"viability, T/C",[10],75.5%
same,"viability, T/C","second compound 1 µM, first compound 0.000316 µM",62.9%
same,"viability, T/C","second compound 1 µM, first compound 0.001 µM",64%
same,"viability, T/C",[13],67.8%
same,"viability, T/C",[14],64.8%
same,"viability, T/C",[15],62.4%
same,"viability, T/C",[16],56.4%
same,"viability, T/C","second compound 3.16 µM, first compound 0.000316 µM",58.8%
same,"viability, T/C","second compound 3.16 µM, first compound 0.001 µM",73.7%
same,"viability, T/C",[19],64.5%
same,"viability, T/C",[20],54.4%
same,"viability, T/C",[21],71.9%
same,"viability, T/C",[22],58.2%
same,"viability, T/C","second compound 10 µM, first compound 0.000316 µM",61.5%
same,"viability, T/C","second compound 10 µM, first compound 0.001 µM",57.2%
same,"viability, T/C",[25],56.8%
same,"viability, T/C",[26],50.1%
same,"viability, T/C",[27],69.5%
same,"viability, T/C",[28],63.4%
O=C(c1ccc(F)c(F)c1Nc1ccc(I)cc1F)N1CC(O)([C@@H]2CCCCN2)C1 + Cc1c(S(C)(=O)=O)c(-c2cc(F)cc(N3CCN(c4ccc(NS(=O)(=O)c5ccc(NC(CCN6CCC(C(=O)OCCCP(=O)(O)O)CC6)CSc6ccccc6)c(S(=O)(=O)C(F)(F)F)c5)cc4)CC3)c2)c(-c2ccc(Cl)cc2)n1C(C)C,IC50,second compound 0.1 µM,92.9 nM
same,IC50,second compound 0.316 µM,55.4 nM
same,IC50,second compound 1 µM,44 nM
same,IC50,second compound 3.16 µM,56.6 nM
same,IC50,second compound 10 µM,4.93 nM
same,"viability, T/C",[1],73%
same,"viability, T/C",[2],66.8%
same,"viability, T/C",[3],72.6%
same,"viability, T/C",[4],44.9%
same,"viability, T/C",[5],23.8%
same,"viability, T/C",[6],4.45%
same,"viability, T/C",[7],59.6%
same,"viability, T/C",[8],58.8%
same,"viability, T/C",[9],61.6%
same,"viability, T/C",[10],39.4%
same,"viability, T/C",[11],21.6%
same,"viability, T/C",[12],25.9%
same,"viability, T/C",[13],70%
same,"viability, T/C",[14],73.7%
same,"viability, T/C",[15],57.1%
same,"viability, T/C",[16],29.5%
same,"viability, T/C",[17],8.66%
same,"viability, T/C",[18],1.82%
same,"viability, T/C",[19],67.7%
same,"viability, T/C",[20],54.5%
same,"viability, T/C",[21],57.4%
same,"viability, T/C",[22],45.5%
same,"viability, T/C",[23],22.3%
same,"viability, T/C",[24],4.54%
same,"viability, T/C",[25],49.6%
same,"viability, T/C",[26],51.9%
same,"viability, T/C",[27],40.5%
same,"viability, T/C",[28],15.2%
same,"viability, T/C",[29],38.4%
same,"viability, T/C",[30],16%
